Results from patent publication US12194095B2, “Combinations and uses thereof” (Incyte Corporation, priority 2015, dated 2025).
“Also recorded” adds a separate entry of the source.

Test system: MEC-1 cells
Assay: ADCC cytotoxicity (target cell killing) of MEC-1 cells with NK cells, MOR00208 and Idelalisib alone and in combination
Assay type: cell-based, human
Method: The cytotoxicity of MOR00208 and Idelalisib alone and in combination were tested in the MEC-1 cell line.
Idelalisib is a phosphoinositide 3-kinase inhibitor; more specifically, it blocks P110δ, the delta isoform of the enzyme phosphoinositide 3-kinase. […] MOR00208 targets CD19 and mediates target cell killing via ADCC.
The following were used as controls: a) MEC-1 cells+RefmAb33+DMSO+NK cells, b) MEC-1 cells+DMSO+NK cells, c) MEC-1 cells+DMSO.
Target cell killing was measured using the following parameters: Idelalisib at concentrations of 0.3, 1, 3 and 10 μM; MOR00208 at concentrations of 1.5, 0.015 and 0.0015 μg/ml and the combination of MOR00208 and Idelalisib at the same concentrations.
In the Idelalisib group, […] in the MOR00208+Idelalisib combination group, target cells were pre-treated with Idelalisib for 7 days prior to the ADCC assay measurements. The target cells were counted and stained using 10 μM CFSE end concentration. For DMSO treated target cells, an effector:target (E:T) ratio of 2:1 is chosen, corresponding to a cell density of 5×10^5/ml. The proliferative effect on target cells caused by Idelalisib treatment was included by adjusting the E:T ratio in inhibitor treated cells. The NK cells are counted and adjusted to 1×10^6/ml. The target cell killing assays were performed as follows: using 96 well plates, 100 μl of target cell suspension was added per well, followed by 100 μl cell suspension of NK cells to each well resulting in an E:T ratio of 2:1. The antibodies were diluted in a range of 10-0.00001 nM (corresponding to 1.5-0.0000015 μg/ml) in medium. Cells were centrifuged and target:effector cell-pellets were re-suspended in 100 μl antibody-containing medium or the according control solution. The assay was incubated for 4 h in CO2-incubator at 37° C. After 10 min incubation on ice, 50 μl DAPI solution was added to each well (final concentration 1 μg/ml) and incubated on ice for 10 min. The cell killing measurements were performed with FACS-Verse. Dead target cells were DAPI positive.
In total, six experiments were performed in order to determine the mediation of ADCC on MEC-1 cells by the combination of MOR00208 and Idelalisib. […] The autoreactivity of the NK cells prevented a proper analysis in those two experiments.
The % dead cells (raw data) from Tables 1-16 was analysed in the following way:
[formula] [formula] [formula] where A is the treatment with MOR00208 alone; B is the treatment with Idelalisib alone; C is response to the control DMSO+RefMab33; AB is the combination of treatments A and B.
In order to confirm the results of synergy as calculated using Clarke et al. above, the Combination Index (CI) method was applied to the % dead cells (raw data) of Tables 1-16. For CI calculations, we used 0.3, 1, 3 and 10 μM Idelalisib and three MOR208 concentrations (1.5, 0.015 and 0.0015 μg/ml).

CC[C@H](Nc1ncnc2nc[nH]c12)c1nc2cccc(F)c2c(=O)n1-c1ccccc1 [Idelalisib]
effect of the Idelalisib group greater than the control (Experiment 1, Tables 1-3): ~4% | % dead cells (Experiment 1, Idelalisib 0.3 μM, MOR00208 0.01 nM (0.0015 μg/ml)): 6.8% | % dead cells (Experiment 1, Idelalisib 0.3 μM, MOR00208 0.1 nM (0.015 μg/ml)): 6.8% | % dead cells (Experiment 1, Idelalisib 0.3 μM, MOR00208 10 nM (1.5 μg/ml)): 6.8% | % dead cells (Experiment 1, Idelalisib 1 μM, MOR00208 0.01 nM (0.0015 μg/ml)): 10.8% | % dead cells (Experiment 1, Idelalisib 1 μM, MOR00208 0.1 nM (0.015 μg/ml)): 10.8% | % dead cells (Experiment 1, Idelalisib 1 μM, MOR00208 10 nM (1.5 μg/ml)): 10.8% | % dead cells (Experiment 1, Idelalisib 3 μM, MOR00208 0.01 nM (0.0015 μg/ml)): 11.3% | % dead cells (Experiment 1, Idelalisib 3 μM, MOR00208 0.1 nM (0.015 μg/ml)): 11.3% | % dead cells (Experiment 1, Idelalisib 3 μM, MOR00208 10 nM (1.5 μg/ml)): 11.3% | % dead cells (Experiment 1, Idelalisib 10 μM, MOR00208 0.01 nM (0.0015 μg/ml)): 11.6% | % dead cells (Experiment 1, Idelalisib 10 μM, MOR00208 0.1 nM (0.015 μg/ml)): 11.6% | % dead cells (Experiment 1, Idelalisib 10 μM, MOR00208 10 nM (1.5 μg/ml)): 11.6% | % dead cells (Experiment 2, Idelalisib 0.3 μM, MOR00208 0.01 nM (0.0015 μg/ml)): 20.8% | % dead cells (Experiment 2, Idelalisib 0.3 μM, MOR00208 0.1 nM (0.015 μg/ml)): 20.8% | % dead cells (Experiment 2, Idelalisib 0.3 μM, MOR00208 10 nM (1.5 μg/ml)): 20.8% | % dead cells (Experiment 2, Idelalisib 1 μM, MOR00208 0.01 nM (0.0015 μg/ml)): 20.7% | % dead cells (Experiment 2, Idelalisib 1 μM, MOR00208 01 nM (0.015 μg/ml)): 20.7% | % dead cells (Experiment 2, Idelalisib 1 μM, MOR00208 10 nM (1.5 μg/ml)): 20.7% | % dead cells (Experiment 2, Idelalisib 3 μM, MOR00208 0.01 nM (0.0015 μg/ml)): 14.6% | % dead cells (Experiment 2, Idelalisib 3 μM, MOR00208 0.1 nM (0.015 μg/ml)): 14.6% | % dead cells (Experiment 2, Idelalisib 3 μM, MOR00208 10 nM (1.5 μg/ml)): 14.6% | % dead cells (Experiment 2, Idelalisib 10 μM, MOR00208 0.01 nM (0.0015 μg/ml)): 14.7% | % dead cells (Experiment 2, Idelalisib 10 μM, MOR00208 0.1 nM (0.015 μg/ml)): 14.7% | % dead cells (Experiment 2, Idelalisib 10 μM, MOR00208 10 nM (1.5 μg/ml)): 14.7% | % dead cells (Experiment 3, Idelalisib 0.3 μM, MOR00208 0.01 nM (0.0015 μg/ml)): 17.3% | % dead cells (Experiment 3, Idelalisib 0.3 μM, MOR00208 0.1 nM (0.015 μg/ml)): 17.3% | % dead cells (Experiment 3, Idelalisib 0.3 μM, MOR00208 10 nM (1.5 μg/ml)): 17.3% | % dead cells (Experiment 3, Idelalisib 1 μM, MOR00208 0.01 nM (0.0015 μg/ml)): 18.7% | % dead cells (Experiment 3, Idelalisib 1 μM, MOR00208 0.1 nM (0.015 μg/ml)): 18.7% | % dead cells (Experiment 3, Idelalisib 1 μM, MOR00208 10 nM (1.5 μg/ml)): 18.7% | % dead cells (Experiment 3, Idelalisib 3 μM, MOR00208 0.01 nM (0.0015 μg/ml)): 14.0% | % dead cells (Experiment 3, Idelalisib 3 μM, MOR00208 0.1 nM (0.015 μg/ml)): 14.0% | % dead cells (Experiment 3, Idelalisib 3 μM, MOR00208 10 nM (1.5 μg/ml)): 14.0% | % dead cells (Experiment 3, Idelalisib 10 μM, MOR00208 0.01 nM (0.0015 μg/ml)): 11.5% | % dead cells (Experiment 3, Idelalisib 10 μM, MOR00208 0.1 nM (0.015 μg/ml)): 11.5% | % dead cells (Experiment 3, Idelalisib 10 μM, MOR00208 10 nM (1.5 μg/ml)): 11.5% | % dead cells (Experiment 4, Idelalisib 0.3 μM, MOR00208 0.01 nM (0.0015 μg/ml)): 15.5% | % dead cells (Experiment 4, Idelalisib 0.3 μM, MOR00208 0.1 nM (0.015 μg/ml)): 15.5% | % dead cells (Experiment 4, Idelalisib 0.3 μM, MOR00208 10 nM (1.5 μg/ml)): 15.5% | % dead cells (Experiment 4, Idelalisib 1 μM, MOR00208 0.01 nM (0.0015 μg/ml)): 15.9% | % dead cells (Experiment 4, Idelalisib 1 μM, MOR00208 0.1 nM (0.015 μg/ml)): 15.9% | % dead cells (Experiment 4, Idelalisib 1 μM, MOR00208 10 nM (1.5 μg/ml)): 15.9% | % dead cells (Experiment 4, Idelalisib 3 μM, MOR00208 0.01 nM (0.0015 μg/ml)): 13.8% | % dead cells (Experiment 4, Idelalisib 3 μM, MOR00208 0.1 nM (0.015 μg/ml)): 13.8% | % dead cells (Experiment 4, Idelalisib 3 μM, MOR00208 10 nM (1.5 μg/ml)): 13.8% | % dead cells (Experiment 4, Idelalisib 10 μM, MOR00208 0.01 nM (0.0015 μg/ml)): 12.1% | % dead cells (Experiment 4, Idelalisib 10 μM, MOR00208 0.1 nM (0.015 μg/ml)): 12.1% | % dead cells (Experiment 4, Idelalisib 10 μM, MOR00208 10 nM (1.5 μg/ml)): 12.1% | cytotoxic effects against MEC-1 cells (Idelalisib alone): little to no cyctotoxic effects; also recorded: low cytotoxity activity
